# Reference: PMC6270184, “Synthesis and Structure-Activity Relationships of Amino Acid Conjugates of Cholanic Acid as Antagonists of the EphA2 Receptor” (Molecules, 2013)
# Read-outs that look alike come from different tables or passages of the source.
# How the values were obtained:
# EphA2 receptor [1] = target: T1, EphA2 receptor (Mus musculus, UniProt Q03145); experiment: ELISA displacement of ephrin-A1 binding from immobilized EphA2 receptor; conditions: for ability to disrupt the EphA2-ephrin-A1 interaction (in words): ELISA binding assay
# Experimental: The pIC50 values of tested compounds are reported in Table 1, together with the corresponding standard deviations of the mean (SEM).
# ELISA assays were performed as previously described. Briefly, compounds were stocked as 5 mM solutions in dimethyl sulfoxide (DMSO) and tested in displacing studies, starting from a concentration of 50 µM. […] The reaction was stopped with 3N HCl 100 µL/well and the absorbance was measured using an ELISA plate reader (Sunrise, TECAN, Männedorf, Switzerland) at 450 nm. IC50 values were determined using one-site competition non-linear regression analysis with Prism software (GraphPad Software Inc., San Diego, CA, USA).
# TGR5 receptor = conditions: cited from earlier work
# FXR = conditions: cited from earlier work
# EphA2 receptor [2] = target: T1, EphA2 receptor; conditions: cited from earlier work
# [3] = inhibition of biotinylated ephrin-A1-Fc binding to EphA2-Fc, means ± SEM from at least three independent experiments, read-out: pIC50±SEM (converted)
# [4] = ref data from an unpublished study
# T1 sequence (Q03145 with tags, fused parts or gaps limits assumed): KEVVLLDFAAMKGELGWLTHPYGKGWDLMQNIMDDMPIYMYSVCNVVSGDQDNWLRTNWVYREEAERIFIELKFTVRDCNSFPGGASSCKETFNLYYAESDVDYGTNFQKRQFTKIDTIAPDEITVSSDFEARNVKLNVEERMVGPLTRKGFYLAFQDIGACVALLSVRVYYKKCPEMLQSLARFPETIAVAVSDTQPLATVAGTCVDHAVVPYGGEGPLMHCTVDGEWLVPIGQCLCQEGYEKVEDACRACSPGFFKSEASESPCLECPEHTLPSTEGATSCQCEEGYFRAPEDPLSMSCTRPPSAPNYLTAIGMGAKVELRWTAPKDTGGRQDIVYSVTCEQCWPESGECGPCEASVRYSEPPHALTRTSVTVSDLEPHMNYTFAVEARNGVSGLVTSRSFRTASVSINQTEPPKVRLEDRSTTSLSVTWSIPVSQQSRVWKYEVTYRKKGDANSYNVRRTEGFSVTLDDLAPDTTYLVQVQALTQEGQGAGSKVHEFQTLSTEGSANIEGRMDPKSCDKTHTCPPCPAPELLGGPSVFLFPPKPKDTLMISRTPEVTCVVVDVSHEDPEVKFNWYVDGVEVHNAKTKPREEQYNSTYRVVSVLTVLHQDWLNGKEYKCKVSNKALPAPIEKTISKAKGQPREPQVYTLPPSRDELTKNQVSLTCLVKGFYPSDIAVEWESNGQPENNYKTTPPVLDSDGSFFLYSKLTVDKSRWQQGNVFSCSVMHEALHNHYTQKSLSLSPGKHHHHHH
melting point [°C],SMILES,IC50 (EphA2 receptor [1]; [3]) [µM],also measured
98 to 101,"C[C@H](CCC(=O)N[C@@H](Cc1c[nH]c2ccccc12)C(=O)O)[C@H]1CC[C@H]2[C@@H]3CC[C@@H]4CCCC[C@]4(C)[C@H]3CC[C@]12C [Compound 8, N-(5β-cholan-24-oyl)-L-tryptophan]",28.2,
,"C[C@H](CCC(=O)NCCS(=O)(=O)O)[C@H]1CC[C@H]2[C@@H]3CC[C@@H]4CCCC[C@]4(C)[C@H]3CC[C@]12C [Compound 5, 2-[N-(5β-Cholan-24-oyl)amino]ethanesulfonic Acid]",> 316,ability to disrupt the EphA2-ephrin-A1 interaction (in words) (EphA2 receptor [1]): loss of inhibitory activity
,"COC(=O)CNC(=O)CC[C@@H](C)[C@H]1CC[C@H]2[C@@H]3CC[C@@H]4CCCC[C@]4(C)[C@H]3CC[C@]12C [Compound 3, Methyl N-(5β-cholan-24-oyl)glycinate]",> 316,ability to disrupt the EphA2-ephrin-A1 interaction (in words) (EphA2 receptor [1]): inactive
192 to 195,"C[C@H](CCC(=O)NCC(=O)O)[C@H]1CC[C@H]2[C@@H]3CC[C@@H]4CCCC[C@]4(C)[C@H]3CC[C@]12C [Compound 2, N-(5β-cholan-24-oyl)glycine]",,
,C[C@H](CCC(=O)N[C@@H](Cc1c[nH]c2ccccc12)C(=O)O)[C@H]1CC[C@H]2[C@@H]3CC[C@@H]4C[C@H](O)CC[C@]4(C)[C@H]3CC[C@]12C [PCM126/UniPR126],,activity on TGR5 receptor (in words) (TGR5 receptor; [4]): micromolar range; interaction with FXR (in words) (FXR; [4]): does not interact
152 to 155,"C[C@H](CCC(=O)NCCC(=O)O)[C@H]1CC[C@H]2[C@@H]3CC[C@@H]4CCCC[C@]4(C)[C@H]3CC[C@]12C [Compound 4, N-(5β-Cholan-24-oyl)-β-alanine]",,
,"C[C@H](CCC(=O)O)[C@H]1CC[C@H]2[C@@H]3CC[C@@H]4C[C@H](O)CC[C@]4(C)[C@H]3CC[C@]12C [LCA, lithocholic acid]",,agonism of TGR5 (in words) (TGR5 receptor): rather potent agonist; agonism of FXR (in words) (FXR): rather potent agonist
141 to 145,"C[C@H](CCC(=O)N[C@H](Cc1c[nH]c2ccccc12)C(=O)O)[C@H]1CC[C@H]2[C@@H]3CC[C@@H]4CCCC[C@]4(C)[C@H]3CC[C@]12C [Compound 9, N-(5β-cholan-24-oyl)-D-tryptophan]",63.1,
,"C[C@H](CCC(=O)O)[C@H]1CC[C@H]2[C@@H]3CCC4CCCC[C@]4(C)[C@H]3CC[C@]12C (some centres unmarked) [Compound 1, cholanic acid]",,"pIC50, inhibition of the EphA2-ephrin-A1 interaction (EphA2 receptor [2]): 4.91; IC50 (EphA2 receptor [1]): 12.3 µM"

SMILES,melting point [°C],IC50 (EphA2 receptor [1]; [3]) [µM],also measured
"C[C@H](CCC(=O)N[C@H](Cc1ccccc1)C(=O)O)[C@H]1CC[C@H]2[C@@H]3CC[C@@H]4CCCC[C@]4(C)[C@H]3CC[C@]12C [Compound 7, N-(5β-cholan-24-oyl)-D-phenylalanine]",195 to 198,26.3,
"C[C@H](CCC(=O)N[C@@H](Cc1ccccc1)C(=O)O)[C@H]1CC[C@H]2[C@@H]3CC[C@@H]4CCCC[C@]4(C)[C@H]3CC[C@]12C [Compound 6, N-(5β-Cholan-24-oyl)-L-phenylalanine]",189 to 192,21.4,
